Experimental data published in article PMC12537693, “3-Hydroxytyrosol as a phenolic cholinesterase inhibitor with antiamnesic activity: a multimethodological study of selected plant phenolics” (Frontiers in Pharmacology, 2025).

Key:
horse serum BChE = horse serum BChE (Equus caballus, UniProt P81908); assay: biochemical; assay type: biochemical; settings: n = 3; for Enzyme inhibition (% ± SD) at 10 mM, BChE / inhibition at 10000 µM: at 10 mM; for inhibition at 10000 µM: read-out: Enzyme inhibition (% ± SD) at 10 mM, BChE
Chain of horse serum BChE (P81908 whole entry): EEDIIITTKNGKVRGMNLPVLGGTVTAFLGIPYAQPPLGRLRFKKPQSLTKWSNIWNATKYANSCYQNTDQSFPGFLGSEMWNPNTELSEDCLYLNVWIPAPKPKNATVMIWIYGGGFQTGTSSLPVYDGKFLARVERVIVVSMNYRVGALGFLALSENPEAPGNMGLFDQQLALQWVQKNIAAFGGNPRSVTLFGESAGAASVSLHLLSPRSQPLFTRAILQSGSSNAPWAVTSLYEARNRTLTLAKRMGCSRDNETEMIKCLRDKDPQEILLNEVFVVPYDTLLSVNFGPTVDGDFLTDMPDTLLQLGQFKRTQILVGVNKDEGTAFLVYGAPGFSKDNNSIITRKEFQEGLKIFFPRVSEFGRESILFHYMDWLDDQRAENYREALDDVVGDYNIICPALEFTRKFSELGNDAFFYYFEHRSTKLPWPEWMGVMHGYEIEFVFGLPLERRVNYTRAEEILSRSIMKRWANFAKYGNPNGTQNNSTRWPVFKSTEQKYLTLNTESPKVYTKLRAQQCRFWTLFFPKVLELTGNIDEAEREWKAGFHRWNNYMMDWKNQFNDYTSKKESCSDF

[1] = tested on: scopolamine-induced amnesic mice; assay: Passive avoidance test in scopolamine-induced amnesic mice; assay type: in vivo

SMILES	inhibition at 10000 µM (horse serum BChE; ± SD)	also measured
O=c1cc(-c2ccc(O)c(-c3c(O)cc(O)c4c(=O)cc(-c5ccc(O)cc5)oc34)c2)oc2cc(O)cc(O)c12 [Amentoflavone]	< 0%	Enzyme inhibition (% ± SD) at 10 mM, BChE (horse serum BChE): no inhibition
O=c1cc(-c2ccc(O)cc2)oc2cc(O)cc(O)c12 [Apigenin]	< 0%	–
O=C(/C=C/c1ccc(O)c(O)c1)O[C@@H]1C[C@](O)(C(=O)O)C[C@@H](O)[C@H]1O [Chlorogenic acid]	25.4 ± 1.72%	–
O=c1oc2c(O)c(O)cc3c(=O)oc4c(O)c(O)cc1c4c23 [Ellagic acid]	< 0%	Enzyme inhibition (% ± SD) at 10 mM, BChE (horse serum BChE): no inhibition
O=c1c(O)c(-c2ccc(O)c(O)c2)oc2cc(O)ccc12 [Fisetin]	76.2 ± 2.48%	IC50 (horse serum BChE; ± SD): 9.62 mM
O=C(O)c1cc(O)c(O)c(O)c1 [Gallic acid]	84.4 ± 2.25%	Mean latency time (min) ± SEM (2nd day) ([1]; 20 mg/kg i.p., scopolamine 1 mg/kg i.p. 30 min later, 24 h after scopolamine, cutoff 9 min): 6.76 ± 1.11 min; Mean latency time (min) ± SEM (1st day) ([1]; acquisition day, before treatment, group given 20 mg/kg i.p., n = 8): 0.29 ± 0.03 min
O=c1c(-c2ccc(O)cc2)coc2cc(O)cc(O)c12 [Genistein]	< 0%	–
O=c1c(O)c(-c2ccc(O)cc2)oc2cc(O)cc(O)c12 [Kaempferol]	< 0%	–
O=c1cc(-c2ccc(O)c(O)c2)oc2cc(O)cc(O)c12 [Luteolin]	< 0%	Enzyme inhibition (% ± SD) at 10 mM, BChE (horse serum BChE): no inhibition
Oc1ccc(-c2[o+]c3cc(O)cc(O)c3cc2O)cc1 [Pelargonidin]	25.3 ± 4.13%	–
O=c1c(O)c(-c2ccc(O)c(O)c2)oc2cc(O)cc(O)c12 [Quercetin]	99.4 ± 0.76%	–
COc1cc(C(=O)O)ccc1O [Vanillic acid]	35.1 ± 3.21%	–
